≈ marks a conversion by molar mass, not a printed value. Like-named read-outs stand apart in the source and are kept apart here.
Experiments:
Bacillus subtilis 168 = test: microbe, parasite or virus in culture; type: cell-based; settings: 37° C., 24 h, read-out: Minimum Inhibitory Concentration, MIC
Bacillus cereus 2 = test: microbe, parasite or virus in culture; type: cell-based; settings: 37° C., 24 h, read-out: Minimum Inhibitory Concentration, MIC
[1] = tested on: Enterococcus faecalis 1513 (VRE); test: microbe, parasite or virus in culture; type: cell-based; settings: 24 h, read-out: Minimum Inhibitory Concentration, MIC
Bacillus anthracis 1 = test: microbe, parasite or virus in culture; type: cell-based; settings: Bacillus anthracis, 1, 24 h, read-out: Minimum Inhibitory Concentration, MIC
[2] = tested on: Enterococcus faecalis 51299; test: microbe, parasite or virus in culture; type: cell-based; settings: Enterococcus faecalis, 51299, 24 h, read-out: Minimum Inhibitory Concentration, MIC
[3] = tested on: Enterococcus fecal F631 (VRE); test: organism not typed; type: cell-based; settings: 24 h, read-out: Minimum Inhibitory Concentration, MIC
[4] = tested on: Staphylococcus aureus 703 (MRSA); test: microbe, parasite or virus in culture; type: cell-based; settings: 24 h, read-out: Minimum Inhibitory Concentration, MIC
Pyogenic Streptococcus = test: microbe, parasite or virus in culture; type: cell-based; settings: 37° C., 24 h, read-out: Minimum Inhibitory Concentration, MIC
[5] = tested on: Streptococcus bovis 10035; test: microbe, parasite or virus in culture; type: cell-based; settings: Streptococcus equinus, 37° C., 24 h, read-out: Minimum Inhibitory Concentration, MIC
[6] = tested on: Corynebacterium diphtheriae; test: microbe, parasite or virus in culture; type: cell-based; settings: 37° C., 24 h, read-out: Minimum Inhibitory Concentration, MIC
[7] = tested on: Streptococcus pneumoniae 6301; test: microbe, parasite or virus in culture; type: cell-based; settings: 37° C., 24 h, read-out: Minimum Inhibitory Concentration, MIC
Bacillus cereus 246 = test: microbe, parasite or virus in culture; type: cell-based; settings: 37° C., 24 h, read-out: Minimum Inhibitory Concentration, MIC
MIC broth microdilution = type: cell-based; settings: Microorganism 33, Dermatophytosis; 37° C., 24 h; read-out: Minimum Inhibitory Concentration, MIC
[8] = tested on: Staphylococcus aureus 705 (MRSA); test: microbe, parasite or virus in culture; type: cell-based; settings: 24 h, read-out: Minimum Inhibitory Concentration, MIC
Clostridium tetani = test: microbe, parasite or virus in culture; type: cell-based; settings: 24 h
[9] = tested on: Staphylococcus aureus 43300 (MRSA); test: microbe, parasite or virus in culture; type: cell-based; settings: 24 h, read-out: Minimum Inhibitory Concentration, MIC
[10] = tested on: Enterococcus faecalis F2518 (VRE); test: microbe, parasite or virus in culture; type: cell-based; settings: 24 h, read-out: Minimum Inhibitory Concentration, MIC
green Streptococcus 1009 = test: microbe, parasite or virus in culture; type: cell-based; settings: 37° C., 24 h, read-out: Minimum Inhibitory Concentration, MIC
Clostridium perfringens = test: microbe, parasite or virus in culture; type: cell-based; settings: 24 h, read-out: Minimum Inhibitory Concentration, MIC
[11] = tested on: Staphylococcus aureus 704 (MRSA); test: microbe, parasite or virus in culture; type: cell-based; settings: 24 h, read-out: Minimum Inhibitory Concentration, MIC
[12] = tested on: Streptococcus agalactiae B; test: microbe, parasite or virus in culture; type: cell-based; settings: 37° C., 24 h, read-out: Minimum Inhibitory Concentration, MIC
Streptococcus 10342 = test: MIC broth microdilution; type: cell-based; settings: 37° C., 24 h, read-out: Minimum Inhibitory Concentration, MIC
Gram-positive Bacteria = type: cell-based
[13] = tested on: Streptococcus pneumoniae 10351; test: microbe, parasite or virus in culture; type: cell-based; settings: 37° C., 24 h, read-out: Minimum Inhibitory Concentration, MIC
Bacillus subtilis 82 = test: microbe, parasite or virus in culture; type: cell-based; settings: 37° C., 24 h, read-out: Minimum Inhibitory Concentration, MIC
[14] = tested on: Streptococcus pneumoniae 6303 (PRSP); test: microbe, parasite or virus in culture; type: cell-based; settings: 24 h, read-out: Minimum Inhibitory Concentration, MIC
[15] = tested on: Staphylococcus aureus 29231; test: microbe, parasite or virus in culture; type: cell-based; settings: 37° C., 24 h, read-out: Minimum Inhibitory Concentration, MIC
[16] = tested on: Enterococcus faecalis 583 (VRE); test: microbe, parasite or virus in culture; type: cell-based; settings: 24 h, read-out: Minimum Inhibitory Concentration, MIC
[17] = tested on: Enterococcus faecalis 19433; test: microbe, parasite or virus in culture; type: cell-based; settings: 37° C., 24 h, read-out: Minimum Inhibitory Concentration, MIC
[18] = tested on: Streptococcus pneumoniae M2; test: microbe, parasite or virus in culture; type: cell-based; settings: 37° C., 24 h, read-out: Minimum Inhibitory Concentration, MIC
[19] = tested on: Enterococcus faecalis 29212; test: microbe, parasite or virus in culture; type: cell-based; settings: 37° C., 24 h, read-out: Minimum Inhibitory Concentration, MIC
MRSA 2152 = test: Antibacterial studies in vivo, survival of mice infected with MRSA 2152; settings: dose mg/kg: ciprofloxacin 20, 3: 30, 7: 40, 21: 50, 33: 25, 70: 70; for Survival rate (%) (life prolongation rate): (survival days of test group − blank group)/blank group ×100%, MRSA 2152 mice, tail vein; for Survival: mice inoculated intraperitoneally with MRSA 2152, test compound by tail vein, repeated after six hours, saline 1.3 days
[20] = tested on: Streptococcus pneumoniae 62; test: microbe, parasite or virus in culture; type: cell-based; settings: 37° C., 24 h, read-out: Minimum Inhibitory Concentration, MIC
Oral candidiasis = test: MIC broth microdilution; type: cell-based; settings: Microorganism 32, Oral candidiasis; 37° C., 24 h; read-out: Minimum Inhibitory Concentration, MIC
[21] = read-out: Minimum Inhibitory Concentration, MIC, Microorganism 29, Clostridium tetani, 37° C.
[22] = read-out: Minimum Inhibitory Concentration, MIC, Microorganism 30, Clostridium tetani (second line of that name), 37° C.
[23] = Enterococcus faecalis (VRE), Staphylococcus aureus (MRSA), Streptococcus pneumoniae 6303 (PRSP), Bacillus cereus, Bacillus subtilis, Enterococcus faecalis, Staphylococcus aureus, Streptococcus pneumoniae, Streptococcus agalactiae B and streptococci 4

Row | Structure (SMILES) | MIC (Bacillus subtilis 168) [µM] | MIC (Bacillus cereus 2) [µM] | MIC [1] [µM] | MIC (Bacillus anthracis 1) [µM] | MIC [2] [µM] | MIC [3] [µM] | MIC [4] [µM] | MIC (Pyogenic Streptococcus) [µM] | MIC [5] [µM] | MIC [6] [µM] | MIC [7] [µM] | MIC (Bacillus cereus 246) [µM] | MIC (MIC broth microdilution) [µM] | MIC [8] [µM] | MIC (Clostridium tetani; [21]) [µM] | MIC (Clostridium tetani; [22]) [µM] | MIC [9] [µM] | MIC [10] [µM] | MIC (green Streptococcus 1009) [µM] | MIC (Clostridium perfringens) [µM] | also measured
1 | Cc1nn2c(=O)cc(-c3ccc(C(F)(F)F)cc3)[nH]c2c1-c1ccc(Cl)cc1Cl [Compound 7] | 0.22 (≈ 0.0964 µg/mL) | 0.63 (≈ 0.276 µg/mL) | 0.65 (≈ 0.285 µg/mL) | 80.3 (≈ 35.2 µg/mL) | 2.5 (≈ 1.1 µg/mL) | 0.63 (≈ 0.276 µg/mL) | 2.5 (≈ 1.1 µg/mL) | 2.5 (≈ 1.1 µg/mL) | 2.25 (≈ 0.986 µg/mL) | 71.2 (≈ 31.2 µg/mL) | 5 (≈ 2.19 µg/mL) | 1.25 (≈ 0.548 µg/mL) | 36.5 (≈ 16 µg/mL) | 0.55 (≈ 0.241 µg/mL) | 50.3 (≈ 22 µg/mL) | 22.1 (≈ 9.69 µg/mL) | 2.5 (≈ 1.1 µg/mL) | 0.23 (≈ 0.101 µg/mL) | 1.35 (≈ 0.592 µg/mL) | 50.2 (≈ 22 µg/mL) | MIC [11]: 0.32 µM (≈ 0.14 µg/mL); MIC [12]: 0.22 µM (≈ 0.0964 µg/mL); MIC (Streptococcus 10342): 0.25 µM (≈ 0.11 µg/mL); inhibition of growth (conclusion from MICs) (Gram-positive Bacteria; [23]): significantly inhibited the growth; MIC [13]: 1.25 µM (≈ 0.548 µg/mL); MIC (Bacillus subtilis 82): 0.02 µM (≈ 0.00876 µg/mL); MIC [14]: 0.21 µM (≈ 0.092 µg/mL); MIC [15]: 5 µM (≈ 2.19 µg/mL); MIC [16]: 0.3 µM (≈ 0.131 µg/mL); MIC [17]: 0.61 µM (≈ 0.267 µg/mL); MIC [18]: 2.5 µM (≈ 1.1 µg/mL); MIC [19]: 0.31 µM (≈ 0.136 µg/mL); Survival rate (%) (life prolongation rate) (MRSA 2152): 330.7%; Survival (MRSA 2152): 5.6 days; MIC [20]: 0.19 µM (≈ 0.0833 µg/mL); MIC (Oral candidiasis): 35.6 µM (≈ 15.6 µg/mL)
2 | Cc1c(-c2ccc(C#N)cc2)[nH]c2c(-c3ccc(Cl)cc3Cl)c(-c3ccccc3)nn2c1=O [Compound 70] | 1.25 (≈ 0.589 µg/mL) | 0.31 (≈ 0.146 µg/mL) | 2.5 (≈ 1.18 µg/mL) | 12.5 (≈ 5.89 µg/mL) | 2.5 (≈ 1.18 µg/mL) | 0.55 (≈ 0.259 µg/mL) | 1.25 (≈ 0.589 µg/mL) | 1.33 (≈ 0.627 µg/mL) | 0.02 (≈ 0.00943 µg/mL) | 45.2 (≈ 21.3 µg/mL) | 0.2 (≈ 0.0943 µg/mL) | 1.32 (≈ 0.622 µg/mL) | 125 (≈ 59.1 µg/mL) | 0.55 (≈ 0.259 µg/mL) | 80.2 (≈ 37.8 µg/mL) | 50.2 (≈ 23.7 µg/mL) | 0.56 (≈ 0.264 µg/mL) | 0.55 (≈ 0.259 µg/mL) | 0.23 (≈ 0.108 µg/mL) | 30.6 (≈ 14.4 µg/mL) | MIC [11]: 0.35 µM (≈ 0.165 µg/mL); MIC [12]: 0.25 µM (≈ 0.118 µg/mL); MIC (Streptococcus 10342): 1.23 µM (≈ 0.58 µg/mL); inhibition of growth (conclusion from MICs) (Gram-positive Bacteria; [23]): significantly inhibited the growth; MIC [13]: 0.55 µM (≈ 0.259 µg/mL); MIC (Bacillus subtilis 82): 1.25 µM (≈ 0.589 µg/mL); MIC [14]: 0.04 µM (≈ 0.0189 µg/mL); MIC [15]: 0.55 µM (≈ 0.259 µg/mL); MIC [16]: 1.25 µM (≈ 0.589 µg/mL); MIC [17]: 0.23 µM (≈ 0.108 µg/mL); MIC [18]: 0.63 µM (≈ 0.297 µg/mL); MIC [19]: 2.5 µM (≈ 1.18 µg/mL); Survival rate (%) (life prolongation rate) (MRSA 2152): 253.8%; Survival (MRSA 2152): 4.6 days; MIC [20]: 10.5 µM (≈ 4.95 µg/mL); MIC (Oral candidiasis): 120 µM (≈ 56.8 µg/mL)
3 | O=C1C(c2ccccc2)C(O)=Nc2cc(-c3ccc(C(F)(F)F)cc3)nn21 (stereo not shown) [Compound 42] | 1.23 (≈ 0.457 µg/mL) | 0.25 (≈ 0.0928 µg/mL) | 20.1 (≈ 7.46 µg/mL) | 32.5 (≈ 12.1 µg/mL) | 21.2 (≈ 7.87 µg/mL) | 21.2 (≈ 7.87 µg/mL) | 172 (≈ 63.9 µg/mL) | 1.23 (≈ 0.457 µg/mL) | 1.28 (≈ 0.475 µg/mL) | 32 (≈ 11.9 µg/mL) | 0.23 (≈ 0.0854 µg/mL) | 0.23 (≈ 0.0854 µg/mL) | 52.1 (≈ 19.3 µg/mL) | 180 (≈ 66.9 µg/mL) | 30.2 (≈ 11.2 µg/mL) | 80.3 (≈ 29.8 µg/mL) | 150 (≈ 55.8 µg/mL) | 18.2 (≈ 6.76 µg/mL) | 1.25 (≈ 0.464 µg/mL) | 2.01 (≈ 0.746 µg/mL) | MIC [11]: 230 µM (≈ 85.5 µg/mL); MIC [12]: 0.55 µM (≈ 0.204 µg/mL); MIC (Streptococcus 10342): 15.5 µM (≈ 5.76 µg/mL); inhibition of growth (conclusion from MICs) (Gram-positive Bacteria; the majority of Bacillus cereus, Bacillus subtilis and Enterococcus faecalis): significantly inhibited the growth; MIC [13]: 1.25 µM (≈ 0.464 µg/mL); MIC (Bacillus subtilis 82): 0.02 µM (≈ 0.00743 µg/mL); MIC [14]: 203 µM (≈ 75.4 µg/mL); MIC [15]: 0.28 µM (≈ 0.104 µg/mL); MIC [16]: 30.3 µM (≈ 11.3 µg/mL); MIC [17]: 18.2 µM (≈ 6.76 µg/mL); MIC [18]: 0.02 µM (≈ 0.00743 µg/mL); MIC [19]: 20.5 µM (≈ 7.61 µg/mL); MIC [20]: 0.25 µM (≈ 0.0928 µg/mL); MIC (Oral candidiasis): 21.3 µM (≈ 7.91 µg/mL)

Reference: patent US20120178915A1, “PYRIMIDINE DERIVATIVES AND ANALOGS, PREPARATION METHOD AND USE THEREOF” (priority 2009, published 2012)
